These are literature values, as cited in paper PMC3226709 (Journal of the American Chemical Society, 2011).

In the data set the test system is GSTO1. The settings on record: read-out: IC50 for GSTO1 inhibition.

Take `CC(=O)Oc1ccc2c(c1)Oc1cc(OC(C)=O)ccc1C21OC(=O)c2cc(CCl)ccc21` [CellTracker Green, 5-chloromethylfluorescein diacetate]: the IC50 is 51 nM.

Usually IC50 stands for the midpoint of a concentration-inhibition curve.
